Target: T1, NHE3 (Homo sapiens, UniProt P48764)
T1 construct: expressed in transfected cells
T1 sequence (P48764 26-834): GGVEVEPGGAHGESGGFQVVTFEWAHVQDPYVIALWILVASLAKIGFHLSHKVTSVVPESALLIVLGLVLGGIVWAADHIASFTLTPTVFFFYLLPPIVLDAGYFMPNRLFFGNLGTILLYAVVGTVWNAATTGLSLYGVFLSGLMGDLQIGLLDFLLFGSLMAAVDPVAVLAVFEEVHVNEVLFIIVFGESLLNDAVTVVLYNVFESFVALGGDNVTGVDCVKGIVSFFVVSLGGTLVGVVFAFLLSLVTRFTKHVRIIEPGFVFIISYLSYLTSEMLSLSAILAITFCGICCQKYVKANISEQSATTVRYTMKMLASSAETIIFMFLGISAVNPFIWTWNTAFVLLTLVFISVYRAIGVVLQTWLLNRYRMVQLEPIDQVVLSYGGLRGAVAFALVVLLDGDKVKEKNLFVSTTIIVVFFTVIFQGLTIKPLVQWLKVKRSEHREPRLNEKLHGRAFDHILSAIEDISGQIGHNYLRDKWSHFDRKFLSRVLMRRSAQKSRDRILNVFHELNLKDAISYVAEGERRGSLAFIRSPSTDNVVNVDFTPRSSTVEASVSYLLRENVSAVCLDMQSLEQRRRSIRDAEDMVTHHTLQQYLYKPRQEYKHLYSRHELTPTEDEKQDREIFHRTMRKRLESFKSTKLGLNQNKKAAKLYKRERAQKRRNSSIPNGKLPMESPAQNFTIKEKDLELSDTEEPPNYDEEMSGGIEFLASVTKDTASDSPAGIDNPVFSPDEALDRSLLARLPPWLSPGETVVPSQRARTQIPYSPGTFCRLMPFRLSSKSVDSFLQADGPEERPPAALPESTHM
T1 sequence (Q99653 2-195 partner limits assumed): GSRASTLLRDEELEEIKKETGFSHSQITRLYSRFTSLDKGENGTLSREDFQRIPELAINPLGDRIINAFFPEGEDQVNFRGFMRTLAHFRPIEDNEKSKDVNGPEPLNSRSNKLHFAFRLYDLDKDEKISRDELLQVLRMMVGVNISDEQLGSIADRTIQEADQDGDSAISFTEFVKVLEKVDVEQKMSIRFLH
Test: persistent inhibition of NHE3 in the cell-based assay of example 181 (4-chloro vs 4-cyano pairs)
Conditions: for IC50: cell-based assay of example 181, after washout, read-out: pIC50 (persistent) (converted); for Percent Inhibition: cell-based assay of example 181, persistent
Method: The following pairs of compounds differ only in the 4-position substituent (either chloro (X—Cl) or cyano (X—CN)):
The ability of compounds to inhibit human and rat NHE-3-mediated Na^+ dependent H^+ antiport after application and washout was measured using a modification of the pH sensitive dye method described above. PS120 fibroblasts stably expressing human NHE3 and NHERF2 were obtained from Mark Donowitz (Baltimore, Md.). Opossum kidney (OK) cells were obtained from the ATCC and propagated per their instructions. The rat NHE-3 gene was introduced into OK cells via electroporation, and cells were seeded into 96 well plates and grown overnight. Medium was aspirated from the wells, cells were washed once with NaCl-HEPES buffer (100 mM NaCl, 50 mM HEPES, 10 mM glucose, 5 mM KCl, 2 mM CaCl2, 1 mM MgCl2, pH 7.4), then overlayed with NaCl-HEPES buffer containing 0-30 μM test compound. After a 60 min incubation at room temperature, the test drug containing buffer was aspirated from the cells. Following aspiration, cells were washed once with NaCl-HEPES buffer without drug, then incubated for 30 min at 37° C. with NH4Cl-HEPES buffer (20 mM NH4Cl, 80 mM NaCl, 50 mM HEPES, 5 mM KCl, 2 mM CaCl2, 1 mM MgCl2, pH 7.4) containing 5 μM BCECF-AM. Cells were washed once with Ammonium free, Na^+-free HEPES (100 mM choline, 50 mM HEPES, 10 mM glucose, 5 mM KCl, 2 mM CaCl2, 1 mM MgCl2, pH 7.4) and incubated in the same buffer for 10 minutes at room temperature to lower intracellular pH. NHE-3-mediated recovery of neutral intracellular pH was initiated (10 min after compound washout) by addition of Na-HEPES buffer. […] Changes in intracellular pH were monitored using a FLIPR Tetra® (Molecular Devices, Sunnyvale, Calif.) by excitation at λex 439 to 505 nm, and measuring BCECF fluorescence at λem 538 nm. The initial rate of the fluorescence ratio change was used as a measure of NHE-mediated Na^+/H^+ activity, and reported as the change in fluorescence ratio per minute.

| Compound | IC50 | Percent Inhibition |
| --- | --- | --- |
| C[C@@H]1CN([C@H]2Cc3c(Cl)cc(Cl)cc3[C@@H]2Oc2ccc(S(=O)(=O)N[C@H]3CCN(CCOCCNC(=O)NCCCCNC(=O)NCCOCCN4CC[C@H](NS(=O)(=O)c5ccc(O[C@H]6c7cc(Cl)cc(Cl)c7C[C@@H]6N6CCN[C@H](C)C6)cc5)C4)C3)cc2)CCN1 [A-Cl, 3-(2-{2-[(3S)-3-(4-{[(1S,2S)-4,6-dichloro-2-[(3R)-3-methylpiperazin-1-yl]-2,3-dihydro-1H-inden-1-yl]oxy}benzenesulfonamido)pyrrolidin-1-yl]ethoxy}ethyl)-1-(4-{[(2-{2-[(3S)-3-(4-{[(1S,2S)-4,6-dichloro-2-[(3R)-3-methylpiperazin-1-yl]-2,3-dihydro-1H-inden-1-yl]oxy}benzenesulfonamido)pyrrolidin-1-yl]ethoxy}ethyl)carbamoyl]amino}butyl)urea] | 2.51 nM | 101% |
| C[C@@H]1CN([C@H]2Cc3c(C#N)cc(Cl)cc3[C@@H]2Oc2ccc(S(=O)(=O)N[C@H]3CCN(C(=O)CNC(=O)CNC(=O)NCCCCNC(=O)NCC(=O)NCC(=O)N4CC[C@H](NS(=O)(=O)c5ccc(O[C@H]6c7cc(Cl)cc(C#N)c7C[C@@H]6N6CCN[C@H](C)C6)cc5)C4)C3)cc2)CCN1 [B-CN, N-{2-[(3S)-3-(4-{[(1S,2S)-6-chloro-4-cyano-2-[(3R)-3-methylpiperazin-1-yl]-2,3-dihydro-1H-inden-1-yl]oxy}benzenesulfonamido)pyrrolidin-1-yl]-2-oxoethyl}-2-({[4-({[({2-[(3S)-3-(4-{[(1S,2S)-6-chloro-4-cyano-2-[(3R)-3-methylpiperazin-1-yl]-2,3-dihydro-1H-inden-1-yl]oxy}benzenesulfonamido)pyrrolidin-1-yl]-2-oxoethyl}carbamoyl)methyl]carbamoyl}amino)butyl]carbamoyl}amino)acetamide] | 0.126 nM | 110% |
| C[C@@H]1CN([C@H]2Cc3c(Cl)cc(Cl)cc3[C@@H]2Oc2ccc(S(=O)(=O)N[C@H]3CCN(C(=O)CNC(=O)CNC(=O)NCCCCNC(=O)NCC(=O)NCC(=O)N4CC[C@H](NS(=O)(=O)c5ccc(O[C@H]6c7cc(Cl)cc(Cl)c7C[C@@H]6N6CCN[C@H](C)C6)cc5)C4)C3)cc2)CCN1 [B-Cl, N-{2-[(3S)-3-(4-{[(1S,2S)-4,6-dichloro-2-[(3R)-3-methylpiperazin-1-yl]-2,3-dihydro-1H-inden-1-yl]oxy}benzenesulfonamido)pyrrolidin-1-yl]-2-oxoethyl}-2-({[4-({[({2-[(3S)-3-(4-{[(1S,2S)-4,6-dichloro-2-[(3R)-3-methylpiperazin-1-yl]-2,3-dihydro-1H-inden-1H-yl]oxy}benzenesulfonamido)pyrrolidin-1-yl]-2-oxoethyl}carbamoyl)methyl]carbamoyl}amino)butyl]carbamoyl}amino)acetamide] | 0.631 nM | 102% |
| N#Cc1cc(Cl)cc2c1C[C@H](N1CCNCC1)[C@H]2Oc1ccc(S(=O)(=O)N[C@H]2CCN(CCOCCNC(=O)NCCCCNC(=O)NCCOCCN3CC[C@H](NS(=O)(=O)c4ccc(O[C@H]5c6cc(Cl)cc(C#N)c6C[C@@H]5N5CCNCC5)c(F)c4)C3)C2)cc1F [C-CN, 3-(2-{2-[(3 S)-3-(4-{[(1S,2S)-6-chloro-4-cyano-2-(piperazin-1-yl)-2,3-dihydro-1H-inden-1-yl]oxy}-3-fluorobenzenesulfonamido)pyrrolidin-1-yl]ethoxy}ethyl)-1-(4-{[(2-{2-[(3S)-3-(4-{[(1S,2S)-6-chloro-4-cyano-2-(piperazin-1-yl)-2,3-dihydro-1H-inden-1-yl]oxy}-3-fluorobenzenesulfonamido)pyrrolidin-1-yl]ethoxy}ethyl)carbamoyl]amino}butyl)urea] | 0.501 nM | 106% |
| O=C(NCCCCNC(=O)NCCOCCN1CC[C@H](NS(=O)(=O)c2ccc(O[C@H]3c4cc(Cl)cc(Cl)c4C[C@@H]3N3CCNCC3)c(F)c2)C1)NCCOCCN1CC[C@H](NS(=O)(=O)c2ccc(O[C@H]3c4cc(Cl)cc(Cl)c4C[C@@H]3N3CCNCC3)c(F)c2)C1 [C-Cl, 3-(2-{2-[(3S)-3-(4-{[(1S,2S)-4,6-dichloro-2-(piperazin-1-yl)-2,3-dihydro-1H-inden-1-yl]oxy}-3-fluorobenzenesulfonamido)pyrrolidin-1-yl]ethoxy}ethyl)-1-(4-{[(2-{2-[(3S)-3-(4-{[(1S,2S)-4,6-dichloro-2-(piperazin-1-yl)-2,3-dihydro-1H-inden-1-yl]oxy}-3-fluorobenzenesulfonamido)pyrrolidin-1-yl]ethoxy}ethyl)carbamoyl]amino}butyl)urea] | 3.98 nM | 90% |
| N#Cc1cc(Cl)cc2c1C[C@H](N1CCNCC1)[C@H]2Oc1ccc(S(=O)(=O)NCCOCCOCCNC(=O)NCCCCNC(=O)NCCOCCOCCNS(=O)(=O)c2ccc(O[C@H]3c4cc(Cl)cc(C#N)c4C[C@@H]3N3CCNCC3)c(F)c2)cc1F [D-CN, 3-(2-{2-[2-(4-{[(1S,2S)-6-chloro-4-cyano-2-(piperazin-1-yl)-2,3-dihydro-1H-inden-1-yl]oxy}-3-fluorobenzenesulfonamido)ethoxy]ethoxy}ethyl)-1-(4-{[(2-{2-[2-(4-{[(1S,2S)-6-chloro-4-cyano-2-(piperazin-1-yl)-2,3-dihydro-1H-inden-1-yl]oxy}-3-fluorobenzenesulfonamido)ethoxy]ethoxy}ethyl)carbamoyl]amino}butyl)urea] | 0.501 nM | 74% |
| O=C(NCCCCNC(=O)NCCOCCOCCNS(=O)(=O)c1ccc(O[C@H]2c3cc(Cl)cc(Cl)c3C[C@@H]2N2CCNCC2)c(F)c1)NCCOCCOCCNS(=O)(=O)c1ccc(O[C@H]2c3cc(Cl)cc(Cl)c3C[C@@H]2N2CCNCC2)c(F)c1 [D-Cl, 3-(2-{2-[2-(4-{[(1S,2S)-4,6-dichloro-2-(piperazin-1-yl)-2,3-dihydro-1H-inden-1-yl]oxy}-3-fluorobenzenesulfonamido)ethoxy]ethoxy}ethyl)-1-(4-{[(2-{2-[2-(4-{[(1S,2S)-4,6-dichloro-2-(piperazin-1-yl)-2,3-dihydro-1H-1-inden-1-yl]oxy}-3-fluorobenzenesulfonamido)ethoxy]ethoxy}ethyl)carbamoyl]amino}butyl)urea] | 3.98 nM |  |
| CN(C)[C@@H]1CCCN([C@H]2Cc3c(C#N)cc(Cl)cc3[C@@H]2Oc2ccc(S(=O)(=O)NCCOCCOCCNC(=O)NCCCCNC(=O)NCCOCCOCCNS(=O)(=O)c3ccc(O[C@H]4c5cc(Cl)cc(C#N)c5C[C@@H]4N4CCC[C@@H](N(C)C)C4)cc3)cc2)C1 [E-CN, 3-(2-{2-[2-(4-{[(1S,2S)-6-chloro-4-cyano-2-[(3R)-3-(dimethylamino)piperidin-1-yl]-2,3-dihydro-1H-inden-1-yl]oxy}benzenesulfonamido)ethoxy]ethoxy}ethyl)-1-(4-{[(2-{2-[2-(4-{[(1S,2S)-6-chloro-4-cyano-2-[(3R)-3-(dimethylamino)piperidin-1-yl]-2,3-dihydro-1H-inden-1-yl]oxy}benzenesulfonamido)ethoxy]ethoxy}ethyl)carbamoyl]amino}butyl)urea] | 1.26 nM | 36% |
